# Experimental data published in patent publication US10016382B2, “Method for decreasing skeletal muscle damage and/or oxidative stress in mammals” (LONZA INC., priority 2014, dated 2018).
# Legend:
# Format in all cases: in vivo, dog
# Labrador Retrievers [1] = experiment: Heart rate and body temperature recovery following 15 mile run, Example 2 part one; settings: for Temperature After Run: in °F (unit assumed)
# Method: Each performance dog wore the Actical activity monitor and GPS tracking collar during the last 15 mile endurance run. The final run was conducted in a manner analogous to that of Example 1. All activity was accurately and precisely calculated using the GPS tracking monitors. Immediately following the 15 mile endurance run, each dog was placed in a kennel and evaluated for recovery time in body temperature (every 15 minutes for 2 hours) and heart rate (every 2 minutes for up to 20 minutes until basal beats per minute (BPM) was reached). Body temperature and heart rate were measured as described in Example 1.
# canine myoglobin = experiment: Serum canine myoglobin, Example 2 part one; settings: for Serum myoglobin: Ex.2 part one, 250 mg/d; for Myoglobin: serum
# Method: Twenty-four hours after test dogs ran the last 15 mile endurance run, serum samples were taken to evaluate biomarkers for muscle damage and antioxidant status. Blood samples were taken 1) just prior to the beginning of the study; 2) 1 day prior to running the final 15 mile run on the 14th week; 3) 1 hour immediately following the 15 mile run; and 4) 24 hours following the final 15 mile run. After a blood sample was drawn, it was allowed to clot for 30 minutes at 25° C. before being centrifuged for 15 minutes at 2000 g at 4° C. Serum was aliquoted into 0.65 mL microcentrifuge tubes and stored at −80° C. until being assayed at the end of the study for creatine kinase, canine myoglobin, thiobarbituric acid reactive substances (TBARS), and total antioxidant capacity (TAC) using the commercially available kits described in Example 1.
# Labrador Retrievers [2] = experiment: Oxygen consumption on treadmill (Oxymax open-circuit calorimeter), Example 2 part three
# Method: Sixteen Labrador Retrievers ranging in age from 1.5 to 3 years were fed low carnitine basal diets with and without added L-carnitine for a 37 week period that included part one and two of the study. Eight (4 male and 4 female) of the test L-carnitine dogs were each fed 3.75 g sugar and 250 mg of L-carnitine, while the other eight dogs (4 male and 4 female) were fed only 4 g of sugar each day for the experimental period. The sixteen test dogs were fed the same diet for parts one, two, and three of the study. During part three of the study, the 16 test dogs were exclusively exercised on the industry sized canine treadmill. Initial Oxymax data was developed for each of the test dogs at various times and speeds in order to determine appropriate speeds on the treadmill required to achieve maximum VO2 concentration. The dogs were run for 15 minutes at 6.5 mph to determine VO2 max. The 16 test dogs were then ran at 50% VO2 max (equivalent to 4 mph) on the treadmill for 30 minutes to determine total energy expenditure (heat production). The system used to acquire information on volume of oxygen consumption and energy expenditure was an Open-Circuit calorimeter, which employed air from the surrounding environment. A mask specially designed for dogs was used to recover the gas sample and ventilate the dog. A small sample was drawn for gas analysis and dried to assure that the readings were made in a sample that was not under the influence of water vapor air exiting the chamber. The O2 and CO2 sensors were connected to software, and instant values of O2 and CO2 were measured. The 16 test dogs (8 L-carnitine dogs, 4 male and 4 female, and 8 control dogs, 4 male and 4 female) were exercised at a warm up speed of 2 mph for 5 minutes prior to running at VO2 max for 15 minutes at 6.5 mph. The next week, the test dogs ran again at a warm up speed of 2 mph for 5 minutes and then at 50% VO2 max for 30 minutes at 4 mph. The statistical analysis for gas exchange was analyzed by a factorial design 2×2 (2 genders and 2 diet treatments) and 2×2×2 (2 genders, 2 diets, 2 speeds) at p-value<0.05. The variable maximum oxygen consumption (Max VO2) was the highest amount of oxygen consumption during the exercise time. The mean oxygen consumption (Mean VO2) was the average amount of oxygen consumption during the exercise time. Oxygen consumption was reported on a per L/kg BW/h basis.
# [3] = Ex.2 part three, 250 mg/d, females, 6.5 mph for 15 min (VO2 max)
# [4] = Ex.2 part three, 250 mg/d, females, 50% VO2 max (4 mph, 30 min)
# [5] = Ex.2 part three, 250 mg/d, females, average of combined speeds (4 mph and 6.5 mph)
# [6] = combined speeds 4.0 and 6.5 (50% VO2 Max and VO2 Max), diet main effect, both genders
# [7] = combined speeds 4.0 and 6.5 (50% VO2 Max and VO2 Max), female dogs
# [8] = combined speeds 4.0 and 6.5 (50% VO2 Max and VO2 Max), male dogs
# [9] = treadmill speed 4 for 30 min (50% VO2 Max), diet main effect, both genders
# [10] = treadmill speed 4 for 30 min (50% VO2 Max), female dogs
# [11] = treadmill speed 4 for 30 min (50% VO2 Max), male dogs
# [12] = treadmill speed 6.5 for 15 min (VO2 Max), diet main effect, both genders
# [13] = treadmill speed 6.5 for 15 min (VO2 Max), female dogs
# [14] = treadmill speed 6.5 for 15 min (VO2 Max), male dogs
smiles,measurement,setting,value
C[N+](C)(C)C[C@H](O)CC(=O)[O-] [L-carnitine],Heartrate after run,"Labrador Retrievers [1]; Ex.2 part one, 250 mg/d, 4 minutes post final run, both sexes",156.15 BPM
same,Heartrate after run,"Labrador Retrievers [1]; Ex.2 part one, 250 mg/d, 4 minutes post final run, males",160 BPM
same,Heartrate after run,"Labrador Retrievers [1]; Ex.2 part one, 250 mg/d, immediately following 15 mile run, both sexes",184.23 BPM
same,Return to basal temperature vs control (regression model),"Labrador Retrievers [1]; Ex.2 part one, 250 mg/d, males and females, FIGS. 5A, 5B",reached basal temperatures faster
same,Return to basal heart rate vs control (regression model),"Labrador Retrievers [1]; Ex.2 part one, 250 mg/d, overall group, males and females, FIGS. 4A, 4B",reached basal heart rate faster
same,Temperature After Run,"Labrador Retrievers [1]; Females, Temp - 0 min after 15 mile run",105.16 ± 0.35
same,Temperature After Run,"Labrador Retrievers [1]; Females, Temp - 15 min after 15 mile run",102.69 ± 0.24
same,Temperature After Run,"Labrador Retrievers [1]; Females, Temp - 30 min after 15 mile run",101.31 ± 0.2
same,Temperature After Run,"Labrador Retrievers [1]; Females, Temp - 45 min after 15 mile run",101.16 ± 0.2
same,Temperature After Run,"Labrador Retrievers [1]; Females, Temp - 60 min after 15 mile run",101.14 ± 0.2
same,Heartrate After Run,"Labrador Retrievers [1]; Females, Time - 0 min after 15 mile run",180.83 ± 3.36 BPM
same,Heartrate After Run,"Labrador Retrievers [1]; Females, Time - 2 min after 15 mile run",165 ± 6.09 BPM
same,Heartrate After Run,"Labrador Retrievers [1]; Females, Time - 4 min after 15 mile run",152.31 ± 6.71 BPM
same,Heartrate After Run,"Labrador Retrievers [1]; Females, Time - 6 min after 15 mile run",149.17 ± 6.21 BPM
same,Heartrate After Run,"Labrador Retrievers [1]; Females, Time - 8 min after 15 mile run",135 ± 6.34 BPM
same,Heartrate After Run,"Labrador Retrievers [1]; Females, Time - 10 min after 15 mile run",117.9 ± 7.45 BPM
same,Heartrate After Run,"Labrador Retrievers [1]; Females, Time - 12 min after 15 mile run",113.08 ± 8.5 BPM
same,Heartrate After Run,"Labrador Retrievers [1]; Females, Time - 14 min after 15 mile run",107.27 ± 8.95 BPM
same,Heartrate After Run,"Labrador Retrievers [1]; Females, Time - 16 min after 15 mile run",78.57 ± 5.73 BPM
same,Heartrate After Run,"Labrador Retrievers [1]; Females, Time - 18 min after 15 mile run",77.86 ± 5.47 BPM
same,Heartrate After Run,"Labrador Retrievers [1]; Females, Time - 20 min after 15 mile run",77.14 ± 5.29 BPM
same,Temperature After Run,"Labrador Retrievers [1]; Males, Temp - 0 min after 15 mile run",105.79 ± 0.36
same,Temperature After Run,"Labrador Retrievers [1]; Males, Temp - 15 min after 15 mile run",102.39 ± 0.4
same,Temperature After Run,"Labrador Retrievers [1]; Males, Temp - 30 min after 15 mile run",100.94 ± 0.23
same,Temperature After Run,"Labrador Retrievers [1]; Males, Temp - 45 min after 15 mile run",100.87 ± 0.19
same,Temperature After Run,"Labrador Retrievers [1]; Males, Temp - 60 min after 15 mile run",100.87 ± 0.19
same,Heartrate After Run,"Labrador Retrievers [1]; Males, Time - 0 min after 15 mile run",187.14 ± 3.54 BPM
same,Heartrate After Run,"Labrador Retrievers [1]; Males, Time - 2 min after 15 mile run",172.14 ± 3.81 BPM
same,Heartrate After Run,"Labrador Retrievers [1]; Males, Time - 4 min after 15 mile run",160 ± 4.94 BPM
same,Heartrate After Run,"Labrador Retrievers [1]; Males, Time - 6 min after 15 mile run",142.86 ± 5.59 BPM
same,Heartrate After Run,"Labrador Retrievers [1]; Males, Time - 8 min after 15 mile run",129.29 ± 5.29 BPM
same,Heartrate After Run,"Labrador Retrievers [1]; Males, Time - 10 min after 15 mile run",122.86 ± 3.7 BPM
same,Heartrate After Run,"Labrador Retrievers [1]; Males, Time - 12 min after 15 mile run",108.57 ± 3.76 BPM
same,Heartrate After Run,"Labrador Retrievers [1]; Males, Time - 14 min after 15 mile run",95 ± 3.1 BPM
same,Heartrate After Run,"Labrador Retrievers [1]; Males, Time - 16 min after 15 mile run",92.14 ± 3 BPM
same,Heartrate After Run,"Labrador Retrievers [1]; Males, Time - 18 min after 15 mile run",89.29 ± 2.21 BPM
same,Heartrate After Run,"Labrador Retrievers [1]; Males, Time - 20 min after 15 mile run",89.29 ± 2.21 BPM
same,Temperature After Run,"Labrador Retrievers [1]; Whole Groups, Temp - 0 min after 15 mile run",105.48 ± 0.25
same,Temperature After Run,"Labrador Retrievers [1]; Whole Groups, Temp - 15 min after 15 mile run",102.54 ± 0.23
same,Temperature After Run,"Labrador Retrievers [1]; Whole Groups, Temp - 30 min after 15 mile run",101.12 ± 0.15
same,Temperature After Run,"Labrador Retrievers [1]; Whole Groups, Temp - 45 min after 15 mile run",101.01 ± 0.14
same,Temperature After Run,"Labrador Retrievers [1]; Whole Groups, Temp - 60 min after 15 mile run",101.01 ± 0.14
same,Heartrate After Run,"Labrador Retrievers [1]; Whole Groups, Time - 0 min after 15 mile run",184.23 ± 2.49 BPM
same,Heartrate After Run,"Labrador Retrievers [1]; Whole Groups, Time - 2 min after 15 mile run",168.85 ± 3.48 BPM
same,Heartrate After Run,"Labrador Retrievers [1]; Whole Groups, Time - 4 min after 15 mile run",156.15 ± 4.15 BPM
same,Heartrate After Run,"Labrador Retrievers [1]; Whole Groups, Time - 6 min after 15 mile run",145.77 ± 4.12 BPM
same,Heartrate After Run,"Labrador Retrievers [1]; Whole Groups, Time - 8 min after 15 mile run",131.92 ± 4.04 BPM
same,Heartrate After Run,"Labrador Retrievers [1]; Whole Groups, Time - 10 min after 15 mile run",120.79 ± 3.72 BPM
same,Heartrate After Run,"Labrador Retrievers [1]; Whole Groups, Time - 12 min after 15 mile run",110.74 ± 4.46 BPM
same,Heartrate After Run,"Labrador Retrievers [1]; Whole Groups, Time - 14 min after 15 mile run",100.4 ± 4.38 BPM
same,Heartrate After Run,"Labrador Retrievers [1]; Whole Groups, Time - 16 min after 15 mile run",85.36 ± 3.43 BPM
same,Heartrate After Run,"Labrador Retrievers [1]; Whole Groups, Time - 18 min after 15 mile run",83.57 ± 3.1 BPM
same,Heartrate After Run,"Labrador Retrievers [1]; Whole Groups, Time - 20 min after 15 mile run",83.21 ± 3.05 BPM
same,Serum myoglobin,canine myoglobin; post-run 1 hour,23.83 ng/mL
same,Serum myoglobin,canine myoglobin; post-run 24 hour,9.25 ng/mL
same,Myoglobin,"canine myoglobin; FEMALES, Baseline",17.33 ± 4.7 ng/mL
same,Myoglobin,"canine myoglobin; FEMALES, Post-Run 1 Hr",25.19 ± 4.25 ng/mL
same,Myoglobin,"canine myoglobin; FEMALES, Post-Run 24 Hr",8.08 ± 2.83 ng/mL
same,Myoglobin,"canine myoglobin; FEMALES, Pre-Run",4.88 ± 1.24 ng/mL
same,Myoglobin,"canine myoglobin; MALES, Baseline",22.22 ± 6.92 ng/mL
same,Myoglobin,"canine myoglobin; MALES, Post-Run 1 Hr",22.46 ± 4.41 ng/mL
same,Myoglobin,"canine myoglobin; MALES, Post-Run 24 Hr",4.41 ± 0.64 ng/mL
same,Myoglobin,"canine myoglobin; MALES, Pre-Run",8.69 ± 3.25 ng/mL
same,Myoglobin,"canine myoglobin; Whole Groups, Baseline",19.78 ± 4.13 ng/mL
same,Myoglobin,"canine myoglobin; Whole Groups, Post-Run 1 Hr, Post-Run 1 Hr",23.83 ± 3.02 ng/mL
same,Myoglobin,"canine myoglobin; Whole Groups, Post-Run 24 Hr, Post-Run 24 Hr",6.25 ± 1.47 ng/mL
same,Myoglobin,"canine myoglobin; Whole Groups, Pre-Run",6.78 ± 1.74 ng/mL
same,Max VO2 consumption,Labrador Retrievers [2]; [3],60.8 mL/min/kg
same,Mean VO2,Labrador Retrievers [2]; [3],3.11 L/kg/h
same,Max VO2 consumption,Labrador Retrievers [2]; [4],42 mL/min/kg
same,Mean VO2,Labrador Retrievers [2]; [4],1.99 L/kg/h
same,Maximum VO2 consumption,Labrador Retrievers [2]; [5],50.3 mL/min/kg
same,Mean VO2 consumption,Labrador Retrievers [2]; [5],41.7 mL/min/kg
same,Max VO2,Labrador Retrievers [2]; [6],2.80 L/kg/h
same,Mean VO2,Labrador Retrievers [2]; [6],2.40 L/kg/h
same,Max VO2,Labrador Retrievers [2]; [7],3.02 a L/Kg/h
same,Mean VO2,Labrador Retrievers [2]; [7],2.50 a L/Kg/h
same,Max VO2,Labrador Retrievers [2]; [8],2.57 ab L/Kg/h
same,Mean VO2,Labrador Retrievers [2]; [8],2.31 ab L/Kg/h
same,Max VO2,Labrador Retrievers [2]; [9],2.39 L/kg/h
same,Mean VO2,Labrador Retrievers [2]; [9],1.98 L/kg/h
same,Max VO2,Labrador Retrievers [2]; [10],2.52 L/kg/h
same,Mean VO2,Labrador Retrievers [2]; [10],1.99 L/kg/h
same,Max VO2,Labrador Retrievers [2]; [11],2.26 L/kg/h
same,Mean VO2,Labrador Retrievers [2]; [11],1.97 L/kg/h
same,Max VO2,Labrador Retrievers [2]; [12],3.27 L/kg/h
same,Mean VO2,Labrador Retrievers [2]; [12],2.89 L/kg/h
same,Max VO2,Labrador Retrievers [2]; [13],3.65 L/kg/h
same,Mean VO2,Labrador Retrievers [2]; [13],3.11 L/kg/h
same,Max VO2,Labrador Retrievers [2]; [14],2.89 L/kg/h
same,Mean VO2,Labrador Retrievers [2]; [14],2.66 L/kg/h
